Assay results published in PubChem BioAssay (NCI).
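These data come from cells grown in 96-well plates and exposed to compound for 48 hours at five concentrations. At the TGI there is no net growth.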

Assays:
Assay in all cases: DTP human tumour cell line panel, 48 h
[1] = tested on: SNB-19 CNS
[2] = tested on: OVCAR-4 ovarian
[3] = tested on: BT-549 breast
[4] = tested on: SF-539 CNS
[5] = tested on: M14 melanoma
[6] = tested on: HS 578T breast
[7] = tested on: PC-3 prostate
[8] = tested on: LOX IMVI melanoma
[9] = tested on: SW-620 colon
[10] = tested on: T-47D breast
[11] = tested on: NCI/ADR-RES ovarian
[12] = tested on: TK-10 renal
[13] = tested on: U251 CNS
[14] = tested on: NCI-H226 lung
[15] = tested on: SF-295 CNS
[16] = tested on: SNB-75 CNS
[17] = tested on: DU-145 prostate
[18] = tested on: NCI-H23 lung
[19] = tested on: MDA-MB-231 breast
[20] = tested on: HL-60(TB) leukemia
[21] = tested on: NCI-H460 lung
[22] = tested on: MALME-3M melanoma
[23] = tested on: SK-OV-3 ovarian
[24] = tested on: UO-31 renal
[25] = tested on: SK-MEL-2 melanoma
[26] = tested on: MDA-N
[27] = tested on: OVCAR-5 ovarian
[28] = tested on: HCT-15 colon
[29] = tested on: OVCAR-3 ovarian
[30] = tested on: RXF 393 renal
[31] = tested on: HT29 colon
[32] = tested on: A549 NSCLC
[33] = tested on: KM12 colon
[34] = tested on: SR leukemia
[35] = tested on: ACHN renal
[36] = tested on: MCF7 breast
[37] = tested on: EKVX NSCLC
[38] = tested on: HOP-92 NSCLC
[39] = tested on: NCI-H522 lung
[40] = tested on: MDA-MB-435
[41] = tested on: 786-0 renal
[42] = tested on: SN12C renal
[43] = tested on: HCC-2998 colon
[44] = tested on: OVCAR-8 ovarian
[45] = tested on: SF-268 CNS
[46] = tested on: UACC-62 melanoma
[47] = tested on: UACC-257 melanoma
[48] = tested on: IGROV1 ovarian
[49] = tested on: A498 renal
[50] = tested on: HOP-62 NSCLC
[51] = tested on: CCRF-CEM leukemia
[52] = tested on: K-562 leukemia
[53] = tested on: COLO 205 colon
[54] = tested on: SK-MEL-28 melanoma
[55] = tested on: MOLT-4 leukemia
[56] = tested on: CAKI-1 renal
[57] = tested on: HCT-116 colon
[58] = tested on: RPMI-8226 leukemia
[59] = tested on: SK-MEL-5 melanoma

Measured: TGI

Cc1[nH]c(=O)c2oc3cc4ccccc4cc3c2c1C(=O)O
not listed: [49] | [50] | [51] | [52] | [53] | [54] | [55] | [56] | [57] | [58] | [59]
> 10 µM: all other assays above

Cc1cn([C@H]2C[C@@H](N3C(=O)c4ccccc4C3=O)[C@@H](CO[Si](C)(C)C(C)(C)C)O2)c(=O)[nH]c1=O
52 µM: [30]
51.7 µM: [31]
61.4 µM: [50]
74.9 µM: [46]
81.5 µM: [41]
60.8 µM: [16]
not listed: [20]
> 100 µM: all other assays above
